In US20190282701A1, “CONJUGATES OF HYALURONIC ACID AND ANTICANCER COMPOUNDS” (THE UNIVERSITY OF MANCHESTER, priority 2016, published 2019):

Legend:
T47D = assay: hypoxic/normoxic cytotoxicity, T47D; format: cell-based; settings: Homo sapiens, survival at 72 h, n=3, conjugate as TPZ groups
MCF-7 = assay: hypoxic/normoxic cytotoxicity, MCF-7; format: cell-based; settings: Homo sapiens, survival at 72 h, n=3, conjugate as TPZ groups
SKBr3 = assay: hypoxic/normoxic cytotoxicity, SKBr3; format: cell-based; settings: Homo sapiens, survival at 72 h, n=3, conjugate as TPZ groups
SNU-423 = assay: hypoxic/normoxic cytotoxicity, SNU-423; format: cell-based; settings: Homo sapiens, survival at 72 h, n=3, conjugate as TPZ groups
MIA PACA-2 = assay: hypoxic/normoxic cytotoxicity, MIA PACA-2; format: cell-based; settings: Homo sapiens, survival at 72 h, n=3, conjugate as TPZ groups
Calu-6 = assay: hypoxic/normoxic cytotoxicity, Calu-6; format: cell-based; settings: Homo sapiens, survival at 72 h, n=3, conjugate as TPZ groups
MDA-MB-231 = assay: hypoxic/normoxic cytotoxicity, MDA-MB-231; format: cell-based; settings: Homo sapiens, survival at 72 h, n=3, conjugate as TPZ groups
MDA-MB-468 = assay: hypoxic/normoxic cytotoxicity, MDA-MB-468; format: cell-based; settings: Homo sapiens, survival at 72 h, n=3, conjugate as TPZ groups
Calu-3 = assay: hypoxic/normoxic cytotoxicity, Calu-3; format: cell-based; settings: Homo sapiens, survival at 72 h, n=3, conjugate as TPZ groups
CAL-27 = assay: hypoxic/normoxic cytotoxicity, CAL-27; format: cell-based; settings: Homo sapiens, survival at 72 h, n=3, conjugate as TPZ groups
A549 = assay: hypoxic/normoxic cytotoxicity, A549; format: cell-based; settings: Homo sapiens, survival at 72 h, n=3, conjugate as TPZ groups
human tumoral cell lines [1] = tested on: human tumoral cell lines
HepG2 = assay: hypoxic/normoxic cytotoxicity, HepG2; format: cell-based; settings: Homo sapiens, survival at 72 h, n=3, conjugate as TPZ groups
FaDu = assay: hypoxic/normoxic cytotoxicity, FaDu; format: cell-based; settings: Homo sapiens, survival at 72 h, n=3, conjugate as TPZ groups
Hep3B2 = assay: hypoxic/normoxic cytotoxicity, Hep3B2; format: cell-based; settings: Homo sapiens, Hep3B, survival at 72 h, n=3, conjugate as TPZ groups
human tumoral cell lines [2] = assay: tumour cell viability assays on a panel of human cancer cell lines (overall statements, FIG. 8-10); settings: eight cancer cell lines, 3 h exposure, FIG. 9 and 10
[3] = tested on: MDA-MB-231 breast cancer cells; assay: MTT toxicity of curcumin and curcumin-HAB conjugate; format: cell-based
Experimental: MDA-MB-231 breast cancer cells were cultured in RPMI-1640 (Gibco) containing 10% FBS, 1% Pen-Strep, L-Glutamine 2 mM (medium) at 37° C. in a humidified 5% CO2 atmosphere. To determine the toxicity of curcumin and a curcumin-HAB conjugate, cells were seeded in 96-well plates at a density of 1,000 cells per well in medium and left to attach for 24 hours. Medium was then removed and replaced with medium containing various concentrations of curcumin or the curcumin-HA conjugate. […] After this time, drug containing medium was removed, replaced with fresh medium and cells incubated for a further 96 hours. […] Briefly, 50 μl of MTT solution (0.5 mg/ml in cell culture medium) was added to each well. After incubation for a further 4 h at 37° C. the medium was removed from each well and replaced with 200 μl of DMSO to dissolve the formazan crystals. The Absorbance in each well was then read at a wavelength of 450 nm using a Tecan Infinite M200 plate-reader using I-control software. The relative cell viability (%) was calculated by the formula [A]test/[A]control×100, where “[A]test” is the absorbance of the test sample, and “[A]control” is the absorbance of the control cells incubated solely with culture medium.

[4] = literature; cited from earlier work
[5] = tested on: HK1 squamous nasopharynx carcinoma cells; settings: 72 h; cited from earlier work
16-F10 melanoma cells = settings: 72 h; cited from earlier work
[6] = tested on: C66-1 squamous nasopharynx carcinoma cells; settings: 72 h; cited from earlier work
[7] = tested on: NCI-H209 lung cancer cells; settings: 24 h; cited from earlier work
MCF7 breast cancer cells = settings: 72 h; cited from earlier work
LNCaP tumor = assay: tumor growth in LNCaP tumor-bearing athymic nude mice; format: in vivo; settings: i.v. every 3 day, 21 days
Experimental: Tumor-bearing mice were prepared by injecting a suspension of LNCaP cells 1×10^6 in saline physiological solution (100 μL) into the subcutaneous dorsa of athymic nude mice (seven weeks old, 20-25 g). After fourteen days of appropriate tumor growth, LNCaP bearing mice were divided into eight groups (n=10 for each group). Treatment was initiated when the tumor volume reached 90 mm^3. The mice were then i.v. injected with 200 μL of the following solutions: […] DMSO to obtain doses of 3, 6, 25 mg/Kg, HAB to obtain a dose of 50 mg/Kg, and DMSO 11% wt. in PBS. Intravenous injections, administered in tail vein, were performed every 3 day for a total period of 21 days of treatment and then sacrificed according to ethical laws in force, following a literature method^1. The tumor size was determined by caliper measurement of the largest and perpendicular diameters during the time of treatment. Tumor volumes were calculated according to the formula: V=a×b^2×0.52, where a is the largest superficial diameter and b is the smallest superficial diameter, according to a literature procedure^17.

[8] = MCF7, MCF-7, 0.1% O2, 3 h exposure
[9] = SK-BR-3, SKBr3, 0.1% O2, 3 h exposure
[10] = SK-BR-3, SKBr3, Air, 3 h exposure
[11] = SNU-423, SNU-423, 0.1% O2, 3 h exposure
[12] = SNU-423, SNU-423, Air, 3 h exposure
[13] = MIA PaCa-2, MIA PACA-2, 0.1% O2, 3 h exposure
[14] = MIA PaCa-2, MIA PACA-2, Air, 3 h exposure
[15] = Calu-6, Calu-6, 0.1% O2, 3 h exposure
[16] = Calu-6, Calu-6, Air, 3 h exposure
[17] = MDA-MB-231, MDA-MB-231, 0.1% O2, 3 h exposure
[18] = MDA-MB-231, MDA-MB-231, Air, 3 h exposure
[19] = MDA-MB-468, MDA-MB-468, 0.1% O2, 3 h exposure
[20] = MDA-MB-468, MDA-MB-468, Air, 3 h exposure
[21] = Calu-3, Calu-3, 0.1% O2, 3 h exposure
[22] = Calu-3, Calu-3, Air, 3 h exposure
[23] = CAL-27, CAL-27, 0.1% O2, 3 h exposure
[24] = CAL-27, CAL-27, Air, 3 h exposure
[25] = A549, A549, 0.1% O2, 3 h exposure
[26] = HepG2, HepG2, 0.1% O2, 3 h exposure
[27] = HepG2, HepG2, Air, 3 h exposure

Nc1n[n+]([O-])c2ccccc2[n+]1[O-] [TPZ, tirapazamine]
IC50 (T47D; 0.1% O2, 3 h exposure): 17.1 ± 1 µM
IC50 (T47D; Air, 3 h exposure): 271 ± 36.4 µM
IC50 (MCF-7; [8]): 20 ± 2 µM
IC50 (MCF-7; MCF7, MCF-7, Air, 3 h exposure): 310 ± 18.3 µM
IC50 (SKBr3; [9]): 6.3 ± 1.3 µM
IC50 (SKBr3; [10]): 218 ± 3.5 µM
IC50 (SNU-423; [11]): 40 ± 5.8 µM
IC50 (SNU-423; [12]): > 500 µM
IC50 (MIA PACA-2; [13]): 15.3 ± 2.5 µM
IC50 (MIA PACA-2; [14]): 270 ± 10 µM
IC50 (Calu-6; [15]): 75 ± 8.6 µM
IC50 (Calu-6; [16]): 340 ± 11.5 µM
IC50 (MDA-MB-231; [17]): 30 ± 5 µM
IC50 (MDA-MB-231; [18]): 341 ± 37.5 µM
IC50 (MDA-MB-468; [19]): 7.5 ± 4.1 µM
IC50 (MDA-MB-468; [20]): 232 ± 35 µM
IC50 (Calu-3; [21]): 71.7 ± 4.4 µM
IC50 (Calu-3; [22]): 242 ± 6 µM
IC50 (CAL-27; [23]): 10 ± 2 µM
IC50 (CAL-27; [24]): 318 ± 50.2 µM
IC50 (A549; [25]): 81.3 ± 7.2 µM
IC50 (A549; A549, A549, Air, 3 h exposure): 585 ± 26.3 µM
difference between hypoxic and normoxic cytotoxicity (human tumoral cell lines [1]): larger difference between hypoxic and normoxic cytotoxicity
IC50 (HepG2; [26]): 13 ± 4.7 µM
IC50 (HepG2; [27]): 228 ± 40.1 µM
IC50 (FaDu; 0.1% O2, 3 h exposure): 23.3 ± 5.4 µM
IC50 (FaDu; Air, 3 h exposure): 383 ± 104 µM
IC50 (Hep3B2; Hep3B2, 0.1% O2, 3 h exposure): 31.2 ± 2.3 µM
IC50 (Hep3B2; Hep3B2, Air, 3 h exposure): > 500 µM

O=C(NCCc1ccc(O)c(O)c1)Nc1n[n+]([O-])c2ccccc2[n+]1[O-] [TPZ-DOPA]
IC50 (T47D; 0.1% O2, 3 h exposure): 18 ± 3.7 µM
IC50 (T47D; Air, 3 h exposure): 35.5 ± 6.4 µM
IC50 (MCF-7; [8]): 15.4 ± 7.09 µM
IC50 (MCF-7; MCF7, MCF-7, Air, 3 h exposure): 23.1 ± 5.5 µM
IC50 (SKBr3; [9]): 13 ± 1.3 µM
IC50 (SKBr3; [10]): 17.7 ± 1.5 µM
IC50 (SNU-423; [11]): 6 ± 1 µM
IC50 (SNU-423; [12]): 22.5 ± 6.4 µM
IC50 (MIA PACA-2; [13]): 9.6 ± 3.4 µM
IC50 (MIA PACA-2; [14]): 28 ± 3.7 µM
IC50 (Calu-6; [15]): 8.3 ± 0.9 µM
IC50 (Calu-6; [16]): 26.7 ± 4.8 µM
IC50 (MDA-MB-231; [17]): 9 ± 1.4 µM
IC50 (MDA-MB-231; [18]): 23.1 ± 5.3 µM
IC50 (MDA-MB-468; [19]): 8.2 ± 2.6 µM
IC50 (MDA-MB-468; [20]): 17.5 ± 5 µM
IC50 (Calu-3; [21]): 16.7 ± 0.9 µM
IC50 (Calu-3; [22]): 20.6 ± 1.1 µM
IC50 (CAL-27; [23]): 7.5 ± 4.4 µM
IC50 (CAL-27; [24]): 18.7 ± 3.1 µM
72 h viability under hypoxia (0.1% oxygen) vs normoxia (air) (human tumoral cell lines [2]): viability is lower under hypoxia than that under normoxia
IC50 (A549; [25]): 42.3 ± 1.2 µM
IC50 (A549; A549, A549, Air, 3 h exposure): 83.6 ± 3.7 µM
IC50 (HepG2; [26]): 3.7 ± 0.7 µM
IC50 (HepG2; [27]): 13.8 ± 2.8 µM
IC50 (FaDu; 0.1% O2, 3 h exposure): 6.5 ± 0.9 µM
IC50 (FaDu; Air, 3 h exposure): 18 ± 2 µM
IC50 (Hep3B2; Hep3B2, 0.1% O2, 3 h exposure): 4.8 ± 0.8 µM
IC50 (Hep3B2; Hep3B2, Air, 3 h exposure): 21.8 ± 2.7 µM

COc1cc(/C=C/C(=O)CC(=O)/C=C/c2ccc(O)c(OC)c2)ccc1O [curcumin]
maximum cell kill that could be achieved ([3]; MDA-MB-231, 40 μM curcumin, 3 h exposure then 96 h): 40%
concentration of curcumin needed for 40% cell kill ([3]; MDA-MB-231, 3 h exposure then 96 h, conjugate as curcumin contained): 40 µM

Oc1cc(O)cc(/C=C/c2ccc(O)c(O)c2)c1 [piceatannol]
tissue accumulation of free drug [4]: strong renal and pulmonary accumulation

O=c1c(O)c(-c2ccc(O)c(O)c2)oc2cc(O)cc(O)c12 [quercetin]
IC50 [5]: 150 to 200 µM
IC50 (16-F10 melanoma cells): 20 µM
IC50 [6]: 150 to 200 µM
tissue accumulation of free drug [4]: strong renal and pulmonary accumulation
IC50 [7]: 5 µM
IC50 (MCF7 breast cancer cells): 10 µM
dose of free quercetin giving results comparable to HABQ (LNCaP tumor): 25 mg/kg
